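96-well plates; 48 h exposure; 5 concentrations. Endpoints by linear interpolation between flanking doses. Not reached: highest tested concentration assigned. At the GI50, growth is halved.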 Calls of active or inactive are those of the source. Cut-off read from the data, not from the text of the source: active = GI50 up to about 1.1 µM and inactive = higher.
Assays:
Test in all cases: DTP human tumour cell line panel, 48 h
NCI-H23 = tested on: NCI-H23
NCI-H460 = tested on: NCI-H460
HOP-62 = tested on: HOP-62
COLO 205 = tested on: COLO 205
OVCAR-8 = tested on: OVCAR-8
IGROV-1 = tested on: IGROV-1
M14 = tested on: M14
HCT-15 = tested on: HCT-15
DLD-1 = tested on: DLD-1
SNB-75 = tested on: SNB-75
SK-MEL-28 = tested on: SK-MEL-28
CAKI-1 = tested on: CAKI-1
UO-31 = tested on: UO-31
SK-MEL-5 = tested on: SK-MEL-5
OVCAR-5 = tested on: OVCAR-5
HL-60 = tested on: HL-60
RXF 393 = tested on: RXF 393
T47D = tested on: T47D
MDA-MB-231 = tested on: MDA-MB-231
DU-145 = tested on: DU-145

| Compound | GI50 (NCI-H23) | GI50 (NCI-H460) | GI50 (HOP-62) | GI50 (COLO 205) | GI50 (OVCAR-8) | GI50 (IGROV-1) | GI50 (M14) | GI50 (HCT-15) | GI50 (DLD-1) | GI50 (SNB-75) | GI50 (SK-MEL-28) | GI50 (CAKI-1) | GI50 (UO-31) | GI50 (SK-MEL-5) | GI50 (OVCAR-5) | GI50 (HL-60) | GI50 (RXF 393) | GI50 (T47D) | GI50 (MDA-MB-231) | GI50 (DU-145) |
| --- | --- | --- | --- | --- | --- | --- | --- | --- | --- | --- | --- | --- | --- | --- | --- | --- | --- | --- | --- | --- |
| O=c1[nH]nc2ccccc2c1Cc1ccccc1 | > 100 µM (inactive) | > 100 µM (inactive) | > 100 µM (inactive) | > 100 µM (inactive) | > 100 µM (inactive) | > 100 µM (inactive) | > 100 µM (inactive) | > 100 µM | > 100 µM (inactive) | 96.6 µM (inactive) | > 100 µM (inactive) | > 100 µM (inactive) | > 100 µM (inactive) | > 100 µM (inactive) | > 100 µM (inactive) | – | – | – | – | – |
| CC(=O)C1C(=O)N(C(C)C)C[C@@H]2CCC(=O)C[C@H]12 (some centres not stated) | > 100 µM (inactive) | > 100 µM (inactive) | > 100 µM (inactive) | > 100 µM (inactive) | > 100 µM (inactive) | > 100 µM (inactive) | > 100 µM (inactive) | > 100 µM | > 100 µM (inactive) | > 100 µM (inactive) | > 100 µM (inactive) | > 100 µM (inactive) | > 100 µM (inactive) | > 100 µM (inactive) | – | > 100 µM (inactive) | > 100 µM (inactive) | – | – | – |
| CCN(N=O)C1C2(CCCC2)NC(=O)C12CCCC2 (configuration not stated) | > 100 µM (inactive) | > 100 µM (inactive) | > 100 µM (inactive) | – | > 100 µM (inactive) | > 100 µM (inactive) | > 100 µM (inactive) | > 100 µM | > 100 µM (inactive) | > 100 µM (inactive) | > 100 µM (inactive) | – | > 100 µM (inactive) | – | > 100 µM (inactive) | > 100 µM (inactive) | > 100 µM (inactive) | – | – | – |
| CCOC(=O)c1nc2ccc(Cl)cc2c2c1CCO2 | > 100 µM (inactive) | > 100 µM (inactive) | 82.4 µM (inactive) | > 100 µM (inactive) | > 100 µM (inactive) | 58.2 µM (inactive) | > 100 µM (inactive) | 99.1 µM | > 100 µM (inactive) | 24 µM (inactive) | > 100 µM (inactive) | 51.8 µM (inactive) | – | 55.6 µM (inactive) | > 100 µM (inactive) | 18.2 µM (inactive) | 41.5 µM (inactive) | – | – | – |
| C=CNC(=O)NC(=O)CSc1nc(=O)c(-c2ccccc2NC(=O)C(F)(F)F)n[nH]1 | 34.8 µM (inactive) | 48.4 µM (inactive) | 94 µM (inactive) | 47.5 µM (inactive) | > 100 µM (inactive) | > 100 µM (inactive) | 23.4 µM (inactive) | > 100 µM | 2.81 µM (inactive) | 0.071 µM (active) | 66.2 µM (inactive) | > 100 µM (inactive) | > 100 µM (inactive) | 0.569 µM (active) | > 100 µM (inactive) | – | > 100 µM (inactive) | – | – | – |
| Cc1c2n(c(=O)[nH]c1=O)C1OC(CO)C(O2)C1O (configuration not stated) | > 100 µM (inactive) | > 100 µM (inactive) | > 100 µM (inactive) | > 100 µM (inactive) | > 100 µM (inactive) | > 100 µM (inactive) | – | > 100 µM | > 100 µM (inactive) | > 100 µM (inactive) | > 100 µM (inactive) | > 100 µM (inactive) | > 100 µM (inactive) | > 100 µM (inactive) | – | > 100 µM (inactive) | > 100 µM (inactive) | – | – | – |
| CCCN(CCC)C(=S)N/N=C(/C)c1ccccc1O | 12.1 µM (inactive) | 2.51 µM (inactive) | 4.25 µM (inactive) | 6.46 µM (inactive) | 3.42 µM (inactive) | 4.43 µM (inactive) | 2.94 µM (inactive) | 3.48 µM | – | 5.56 µM (inactive) | 7.28 µM (inactive) | 8.49 µM (inactive) | 4.11 µM (inactive) | 5.81 µM (inactive) | 10.3 µM (inactive) | 3.96 µM (inactive) | 23.6 µM (inactive) | 3.61 µM (inactive) | 9.4 µM (inactive) | 6.84 µM (inactive) |
| CCc1c(Cc2[nH]c(Cc3[nH]c(C=O)c(C)c3CC)c(CC)c2CC)[nH]c(C=O)c1C | – | > 100 µM (inactive) | > 100 µM (inactive) | > 100 µM (inactive) | > 100 µM (inactive) | – | > 100 µM (inactive) | > 100 µM | > 100 µM (inactive) | 34.6 µM (inactive) | > 100 µM (inactive) | > 100 µM (inactive) | > 100 µM (inactive) | > 100 µM (inactive) | – | > 100 µM (inactive) | 39 µM (inactive) | – | – | – |
| O=C(O)c1ccccc1/N=N/c1ccc2oc(=O)c(C(=O)Nc3ccccc3)cc2c1 | 34 µM (inactive) | 36.6 µM (inactive) | 35.6 µM (inactive) | 30.3 µM (inactive) | 38.1 µM (inactive) | 46.5 µM (inactive) | 47.9 µM (inactive) | 32.7 µM | 40.9 µM (inactive) | 33 µM (inactive) | 36.6 µM (inactive) | – | 37.1 µM (inactive) | 28.4 µM (inactive) | – | 24.4 µM (inactive) | 28.4 µM (inactive) | – | – | – |
| C=C1C(=O)OC2C1CCC(=C)C1CC(O)C(=C)C12 (configuration not stated) | 18.7 µM (inactive) | 18 µM (inactive) | 21.2 µM (inactive) | 2.55 µM (inactive) | 24.9 µM (inactive) | 14 µM (inactive) | 17.5 µM (inactive) | 10.8 µM | – | 19.7 µM (inactive) | 14.4 µM (inactive) | 4.28 µM (inactive) | 15.3 µM (inactive) | 14.3 µM (inactive) | 11.5 µM (inactive) | 1.82 µM (inactive) | 13.1 µM (inactive) | 20.7 µM (inactive) | 16.3 µM (inactive) | 15 µM (inactive) |
| COc1cccc(C2c3cc4c(cc3OC(NNS(=O)(=O)c3ccc(C)cc3)C2C)OCO4)c1OC (configuration not stated) | 4.06 µM (inactive) | 2.67 µM (inactive) | 2.84 µM (inactive) | 1.83 µM (inactive) | 27.4 µM (inactive) | 2.52 µM (inactive) | 3.59 µM (inactive) | 2.65 µM | – | 2.52 µM (inactive) | 6.98 µM (inactive) | 2.29 µM (inactive) | 2.63 µM (inactive) | 2.83 µM (inactive) | 4.82 µM (inactive) | 1.42 µM (inactive) | 2.12 µM (inactive) | 3.44 µM (inactive) | 5.47 µM (inactive) | 2.29 µM (inactive) |
| COC1(OC)C(N(C)C)=C(Cl)C(=O)/C1=C/C=O | > 100 µM (inactive) | > 100 µM (inactive) | > 100 µM (inactive) | > 100 µM (inactive) | > 100 µM (inactive) | > 100 µM (inactive) | > 100 µM (inactive) | 98.9 µM | > 100 µM (inactive) | – | 53.8 µM (inactive) | > 100 µM (inactive) | > 100 µM (inactive) | > 100 µM (inactive) | > 100 µM (inactive) | 77.4 µM (inactive) | – | – | – | – |
| CC(C)(C)c1cc(C(P(=O)(O)O)P(=O)(O)O)cc(C(C)(C)C)c1O | > 100 µM (inactive) | > 100 µM (inactive) | > 100 µM (inactive) | – | > 100 µM (inactive) | > 100 µM (inactive) | > 100 µM (inactive) | > 100 µM | > 100 µM (inactive) | 95.1 µM (inactive) | > 100 µM (inactive) | > 100 µM (inactive) | > 100 µM (inactive) | > 100 µM (inactive) | > 100 µM (inactive) | > 100 µM (inactive) | – | – | – | – |
| Nc1ccn(C2(CO)C=C(CO)C(O)C2O)c(=O)n1 (configuration not stated) | – | > 25.8 µM (inactive) | > 25.8 µM (inactive) | > 25.8 µM (inactive) | > 25.8 µM (inactive) | > 25.8 µM (inactive) | > 25.8 µM (inactive) | > 25.8 µM | > 25.8 µM (inactive) | > 25.8 µM (inactive) | > 25.8 µM (inactive) | > 25.8 µM (inactive) | > 25.8 µM (inactive) | > 25.8 µM (inactive) | – | > 25.8 µM (inactive) | > 25.8 µM (inactive) | – | – | – |
| COc1cc(O)c2c(c1)C(=O)C1=C(C2=O)C(O)C[C@@](C)(O)C1 (some centres not stated) | 1.53 µM (inactive) | 1.92 µM (inactive) | 8.71 µM (inactive) | 0.264 µM (active) | 1.16 µM (inactive) | 1.79 µM (inactive) | 0.871 µM (active) | 0.358 µM | 0.229 µM (active) | 3.41 µM (inactive) | 1.5 µM (inactive) | 1.87 µM (inactive) | 2.67 µM (inactive) | – | 9.95 µM (inactive) | 0.451 µM (active) | 1.32 µM (inactive) | – | – | – |
| C[n+]1c(-c2ccc(/C=N/NC(=O)c3ccc(C(=O)N/N=C/c4ccc(-c5cn6ccccc6[n+]5C)cc4)cc3)cc2)cn2ccccc21 | > 100 µM (inactive) | > 100 µM (inactive) | > 100 µM (inactive) | > 100 µM (inactive) | > 100 µM (inactive) | > 100 µM (inactive) | 98.6 µM (inactive) | > 100 µM | – | > 100 µM (inactive) | > 100 µM (inactive) | > 72.9 µM (inactive) | > 59.8 µM (inactive) | > 67.9 µM (inactive) | > 100 µM (inactive) | > 100 µM (inactive) | > 61.9 µM (inactive) | > 100 µM (inactive) | > 74.3 µM (inactive) | > 100 µM (inactive) |
| C[C@]12CC[C@H](O)C[C@H]1CC[C@@H]1[C@@H]2CC[C@]2(C)[C@@H](C3=CC(=O)OC3)CC[C@]12O [DIGITOXIGENIN] | 0.0338 µM (active) | 0.0168 µM (active) | 0.04 µM (active) | 0.44 µM (active) | 0.147 µM (active) | 0.0668 µM (active) | 0.226 µM (active) | 0.101 µM | – | 0.299 µM (active) | 0.569 µM (active) | 0.0357 µM (active) | 0.117 µM (active) | 0.0447 µM (active) | 0.59 µM (active) | 0.0524 µM (active) | 0.0144 µM (active) | 0.292 µM (active) | 0.774 µM (active) | 0.04 µM (active) |

From ChEMBL document CHEMBL1201862, “PubChem BioAssay data set” (2004)
